According to patent publication EP2559435A1, “Rotigotine in the treatment of hemispatial neglect, stroke and deficits following stroke” (UCB Pharma GmbH, priority 2011, dated 2013):
Like-named read-outs stand apart in the source and are kept apart here.

Experiments:
[1] = system: patients with hernispatial neglect and unilateral weakness following right hemisphere stroke; experiment: Touchscreen cancellation task of hemispatial neglect, clinical trial; assay type: in vivo; conditions: group of all 16 patients; on rotigotine vs before treatment onset
Description: (§1) A commercially available rotigotine TTS has been tested in a double-blind, randomised, placebo controlled trial of the dopamine agonist rotigotine in 16 patients aged over 18 years with hernispatial neglect and unilateral weakness following right hemisphere stroke.
(§2) Patients were assessed with a battery of standardised neglect tests, as well as with tests of working memory, selective and sustained attention and motor function. A replicated ABA double-blind, placebo-controlled N-of-1 randomised design (Edgington E, Onghena P. Randomization Tests (Statistics: a Series of Textbooks and Monographs). 4th ed. Chapman & Hall/CRC: 2007), which allows to evaluate the effectiveness of an intervention in small sample sizes. Each patient's performance was measured in three phases, each consisting of several assessment sessions: before treatment (phase A1), while receiving transdermal rotigotine (phase B) and after discontinuation of the drug - post treatment phase (phase A2). The exact duration of each phase was randomised across patients. […]
(§3) Phase A1 started on session 1 and its duration was randomised (across individuals) to between 5 and 9 days. […] Finally, phase A2, when patients were assessed after the discontinuation of rotigotine, was randomised to begin between sessions 13 and 17, and it lasted for the remaining 4 to 8 sessions. […]

[2] = system: patients with hernispatial neglect and unilateral weakness following right hemisphere stroke; experiment: Selective and sustained attention (vigilance) task, clinical trial; assay type: in vivo
Description: as §1
(§4) Patients were assessed with a battery of standardised neglect tests, as well as with tests of working memory, selective and sustained attention and motor function. A replicated ABA double-blind, placebo-controlled N-of-1 randomised design (Edgington E, Onghena P. Randomization Tests (Statistics: a Series of Textbooks and Monographs). 4th ed. Chapman & Hall/CRC: 2007), which allows to evaluate the effectiveness of an intervention in small sample sizes. Each patient's performance was measured in three phases, each consisting of several assessment sessions: before treatment (phase A1), while receiving transdermal rotigotine (phase B) and after discontinuation of the drug - post treatment phase (phase A2). The exact duration of each phase was randomised across patients. Performance on rotigotine was compared with the pre-treatment baseline and post-treatment follow-up phases.
(§5) The effects of the drug were evaluated for the whole group of 16 patients, and, separately for two subgroups with different extent of involvement of the prefrontal cortex in the stroke lesion. The subgroups are defined according to the extent of involvement of the prefrontal cortex in the stroke lesion: a minimal prefrontal involvement subgroup (0%-15% of the prefrontal cortex affected) and an extensive prefrontal subgroup (33%-55% of the prefrontal cortex affected).
Phase A1 started on session 1 and its duration was randomised (across individuals) to between 5 and 9 days. Observations during this phase established the baseline performance. […] Finally, phase A2, when patients were assessed after the discontinuation of rotigotine, was randomised to begin between sessions 13 and 17, and it lasted for the remaining 4 to 8 sessions.
The subject had to identify high- or low- sallence targets among non targets on either side. % correct and reaction times are measured, further described in Barcelo et al. Nature Neuroscience 2000 3:399-403.
Participants detected targets (inverted triangles) among sequences of distractors (upright triangles) randomly presented to the ipsilesional and contralesional visual fields. […]
As a measure of selective attention, the ratio of the reaction time (RT) to high visual salience targets over the RT to low visual salience targets was used. Furthermore, using this task, sustained attention was quantified over time, by measuring the difference in RT and % correct responses between the first and the second half of each experimental session. […]

[3] = system: patients with hernispatial neglect and unilateral weakness following right hemisphere stroke; experiment: Vertical Corsi spatial working memory task, clinical trial; assay type: in vivo; conditions: in some patients
Description: as §1, §2, §3

[4] = system: patients with hernispatial neglect and unilateral weakness following right hemisphere stroke; experiment: Motricity Index (motor function on the affected side), clinical trial; assay type: in vivo; conditions: in some patients
Description: as §1, §2, §3

[5] = system: patients with hernispatial neglect and unilateral weakness following right hemisphere stroke; experiment: Mesulam cancellation (visual search) task of hemispatial neglect, clinical trial; assay type: in vivo
Description: as §1, §4, §5
Phase A1 started on session 1 and its duration was randomised (across individuals) to between 5 and 9 days. Observations during this phase established the baseline performance. Phase B, when rotigotine was administered, could commence on day 6 to day 10, and its duration was a minimum of 7 and a maximum of 11 sessions. During treatment phase, a rotigotine 9 mg patch (4mg/24hr transdermal absorption) was applied daily and worn for 24 hours a day. Finally, phase A2, when patients were assessed after the discontinuation of rotigotine, was randomised to begin between sessions 13 and 17, and it lasted for the remaining 4 to 8 sessions.
Each patient was randomly assigned a pattern of onset and duration of the treatment and baseline phases, within the duration limits described above. In this example, the patient had 6 baseline assessments (phase A1, sessions 1-6), followed by 8 days on rotigotine (sessions 7-14) and 6 follow-up assessments (phase A2, sessions 15-20) after discontinuation of the drug. […] Mid-grey depicts any additional sessions in phases A1 and A2 when the patient received placebo patches. Some other possible permutations of pre-treatment, treatment and post-treatment phases within the constraints of the design are shown in figure 1b. The actual difference in performance between treatment (B) and the off-treatment phases (A1 and A2) was ranked against the differences between phases produced by all other possible combinations of treatment allocation, given the limits in phase onset and duration. In total, there were 15 possible permutations.
This visuospatial scanning test-further described in Mesulam, M.-M. Principles of Behavioural Neurology; tests of directed attention and memory (Davis, Philadelphia, 1985) - with a cluttered array of symbols is performed on A3 sheets. In this test visual target objects are identified among distracters; targets identified are marked by the participant (black circles in fig. 2). There was a 2 minutes time limit for this task. […] Furthermore, on rotigotine, there was an improvement in the spatial bias of the responses, measured as the proportion of the targets identified on the left when compared to those identified on the right. In the minimal prefrontal involvement subgroup, rotigotine had again a significant positive effect in the number of targets identified on the left. […]

neglect patients = conditions: cited from earlier work

CCCN(CCc1cccs1)C1CCc2c(O)cccc2C1 (single isomer, unassigned; (-)) [rotigotine, (-)-5,6,7,8-tetrahydro-6-[propyl-[2-(2thienyl)ethyl]-amino]-1-naphthalenol]
targets identified [1]: more targets were identified
ratio of RT to high salience vs low salience targets ([2]; entire group, left sided targets, during treatment vs pre-treatment baseline): significant increase
ratio of RT to high salience vs low salience targets ([2]; entire group, left sided targets, treatment vs post-treatment baseline or average of both off-treatment phases): only marginal
ratio of RT to high salience vs low salience targets ([2]; extensive prefrontal subgroup, overall for both left and right-sided targets): significant beneficial effect
ratio of RT to high salience vs low salience targets ([2]; minimal prefrontal subgroup (e.g. left sided targets, comparison with off-treatment average)): no significant effect
spatial working memory (spatial span) [3]: improved spatial working memory
motor function on the affected side (Motricity Index of the affected arm, leg and side) [4]: improved motor function on the affected side
number of targets found on the left side ([5]; entire group of 16 patients, on rotigotine vs pre- and post-treatment phases averaged or post-treatment phase alone): significantly higher
difference on- and off-treatment in the number of targets found on the left side relative to baseline ([5]; entire group of 16 patients, rotigotine 9 mg patch (4mg/24hr) daily, actual treatment allocation higher than mean difference of all possible permutations): 12.8%
effect size: less rightward bias relative to baseline (spatial bias in visual search) ([5]; entire group of 16 patients, rotigotine 9 mg patch (4mg/24hr) daily, actual treatment allocation in comparison to all possible permutations): 8.1%
spatial bias in visual search ([5]; entire group, on rotigotine vs post-treatment phase or both off-treatment phases): improved significantly
decrease in the number of targets found in a smaller area on the right hand side ([5]; entire patient group, during treatment): not statistically significant
spatial bias ([5]; extensive prefrontal group, on rotigotine): improved significantly
number of left targets found ([5]; extensive prefrontal subgroup (33%-55% of prefrontal cortex affected), on rotigotine): did not reach significance
number of targets identified in total ([5]; group of all 16 patients, on rotigotine): significantly larger number of targets
number of left targets found ([5]; minimal prefrontal subgroup (0%-15% of prefrontal cortex affected), on rotigotine): significantly higher

CN1CCc2cccc3c2[C@H]1Cc1ccc(O)c(O)c1-3 [Apomorphine]
effect on hemispatial neglect (neglect patients; four neglect patients tested (Geminiani et al. 1998)): transient improvement in three out of four neglect patients

NC12CC3CC(CC(C3)C1)C2 [amantadine]
effect on hemispatial neglect (neglect patients; small-scale trial in four neglect patients (Buxbaum et al. 2007)): did not demonstrate any beneficial effect
